From patent US9169241B2, “Quinolinyloxyphenylsulfonamides” (Max-Planck-Gesellschaft Zur Forderung der Wissenschaften …, priority 2009, dated 2015)
pIC50: −log10 of the molar value. Where two headings read alike, the source gives them in different places.

How the values were obtained:
Assay type in all cases: cell-based
[1] = tested on: C8161; test: Apoptosis assay (Cellomics, nucleus condensation); settings: Homo sapiens, Table III, read-out: Apoptosis induction in C8161
Method in brief: (§1)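 Apoptosis scored by automated microscopy of Hoechst-stained live nuclei, 24 and 48 h after treatment with 0.39–12.5 μM compound or DMSO.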

[2] = tested on: Hs578T; test: Apoptosis assay (Cellomics, nucleus condensation); settings: Homo sapiens, Hs-578T, Table III, read-out: Apoptosis induction in Hs578T
Method in brief: as §1

[3] = tested on: SF126; test: Apoptosis assay (Cellomics, nucleus condensation); settings: Homo sapiens, SF-126, Table III, read-out: Apoptosis induction in SF126
Method in brief: as §1

[4] = tested on: SF763; test: Apoptosis assay (Cellomics, nucleus condensation); settings: Table III, read-out: Apoptosis induction in SF763
Method in brief: as §1

[5] = tested on: U138; test: Apoptosis assay (Cellomics, nucleus condensation); settings: Table III, read-out: Apoptosis induction in U138
Method in brief: as §1

[6] = tested on: Hs578T; test: Wound healing migration assay; settings: Homo sapiens, Hs-578T; HS578T cell line; Table Ib
Method in brief: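 Compound exposure at 12.5, 6.25 and 3.125 μM, with DMSO control, on scratch-wounded monolayers (150000 cells/24 well, overnight). Wound closure imaged by microscopy, fixed with crystal violet after 48 h or 72 h depending on cell line; IC50 is the concentration giving 50% wound size between t0 and t48/t72.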

[7] = tested on: tumor cell; test: Matrigel outgrowth assay/branching assay (Table Va)
Method in brief: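 Cells (5000/well) were seeded onto polymerized 3 mg/ml Matrigel with compound at 3.125, 1.56 or 0.78 μM versus DMSO. Branching was imaged by inverted microscopy (5× objective) at 48, 72 and 96 h. Only concentrations giving total branching inhibition scored positive.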

[8] = tested on: cells; test: Boyden chamber migration assay (Table VI); settings: Homo sapiens, Hs-578T, 16 h, Hs578T cells; 16 h migration
Method in brief: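 Migration read-out is a count of fixed cells on the underside of an […] insert membrane after 16 h. Chemoattractant was medium with 10% FCS in the lower chamber; 20000 cells started in serum-free medium with 0.1% BSA above, and those left on top were removed by swab.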

[9] = tested on: viable cells in culture; test: Cell viability assay at 10 μM (CellTiter-Glo, Table VII); settings: compound 10 μM, 72 h;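 further: graded A 0-20%; B 21-40%; C 41-60%; D over 60% viable cells relative to DMSO control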
Method in brief: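 Cells were seeded at 1000 cells/well in 96-well plates in 100 μl culture medium and incubated for 72 h with 10 μM compound or a DMSO control. ATP content, which reflects metabolically active and therefore viable cells, was then determined by CellTiter-Glo luminescence (Promega) per the manufacturer's instructions and expressed relative to the DMSO control.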

[10] = Homo sapiens, C8161 cells, read-out: Total branching inhibition in Matrigel C8161
[11] = Homo sapiens, Hs-578T, Hs578T cells, read-out: Total branching inhibition in Matrigel Hs578T
[12] = U118 cells, read-out: Total branching inhibition in Matrigel U118
[13] = U138 cells, read-out: Total branching inhibition in Matrigel U138
[14] = Homo sapiens, HCT-116, HCT116 def, read-out: percentage (%) of viable cells HCT 116def
[15] = Homo sapiens, HCT-116, HCT116 wt, read-out: percentage (%) of viable cells HCT 116wt
[16] = Homo sapiens, HT-29, HT29, read-out: percentage (%) of viable cells HT29
[17] = Homo sapiens, NCI-H358, H358, read-out: percentage (%) of viable cells H358
[18] = Homo sapiens, NCI-H1650, H1650, read-out: percentage (%) of viable cells H1650
[19] = Homo sapiens, NCI-H1666, H1666, read-out: percentage (%) of viable cells H1666
[20] = Homo sapiens, NCI-H1975, H1975, read-out: percentage (%) of viable cells H1975
[21] = Homo sapiens, NCI-H1993, H1993, read-out: percentage (%) of viable cells H1993
[22] = Homo sapiens, A549, read-out: percentage (%) of viable cells A549
[23] = Homo sapiens, HCC827, read-out: percentage (%) of viable cells HCC827
[24] = Homo sapiens, SW480, read-out: percentage (%) of viable cells SW480
[25] = RKO, read-out: percentage (%) of viable cells RKO

SMILES | pIC50 [1] | pIC50 [2] | pIC50 [3] | pIC50 [4] | pIC50 [5] | pIC50 [7, 10] | pIC50 [7, 11] | pIC50 [7, 12] | pIC50 [7, 13] | pIC50 [8] | viability at 10 µM [9, 14] [%] | viability at 10 µM [9, 15] [%] | viability at 10 µM [9, 16] [%] | viability at 10 µM [9, 17] [%] | viability at 10 µM [9, 18] [%] | viability at 10 µM [9, 19] [%] | viability at 10 µM [9, 20] [%] | viability at 10 µM [9, 21] [%] | viability at 10 µM [9, 22] [%] | viability at 10 µM [9, 23] [%] | other results
COc1cc2c(Oc3ccc(NS(=O)(=O)c4cc(Cl)cc(Cl)c4OC)cc3F)ccnc2cc1OCCCN1CCCCC1 [Example 34, 3,5-Dichloro-N-{3-fluoro-4-[6-methoxy-7-(3-piperidin-1-yl-propoxy)-quinolin-4-yloxy]-phenyl}-2-methoxy-benzenesulfonamide] | ≥ 4.90 | 4.30 to 4.90 | ≥ 4.90 | ≥ 4.90 | ≥ 4.90 | ≥ 5.30 | ≥ 5.30 | ≥ 5.30 | 4.30 to 5.30 | ≥ 5.30 | 21 to 40 | 0 to 20 | 21 to 40 | 0 to 20 | 21 to 40 | 21 to 40 | 0 to 20 | 0 to 20 | > 60 | > 60 | pIC50 [6]: ≥ 4.90; viability at 10 µM [9, 24]: 0 to 20%; viability at 10 µM [9, 25]: 0 to 20%
COc1cc2c(Oc3ccc(NS(=O)(=O)c4ccccc4C(F)(F)F)cc3F)ccnc2cc1OCCCNC1CCOCC1 [Example 95, N-(3-Fluoro-4-{6-methoxy-7-[3-(tetrahydro-pyran-4-ylamino)-propoxy]-quinolin-4-yloxy}-phenyl)-2-trifluoromethyl-benzenesulfonamide] | ≥ 4.90 | ≥ 4.90 | ≥ 4.90 | ≥ 4.90 | ≥ 4.90 | ≥ 5.30 | ≥ 5.30 | 4.30 to 5.30 | 4.30 to 5.30 | ≥ 5.30 | 21 to 40 | 21 to 40 | 0 to 20 | 0 to 20 | 21 to 40 | 21 to 40 | 0 to 20 | 0 to 20 | > 60 | 21 to 40 | viability at 10 µM [9, 24]: 0 to 20%; viability at 10 µM [9, 25]: 0 to 20%
COc1cc2c(Oc3ccc(NS(=O)(=O)c4cccc(C)c4)cc3F)ccnc2cc1OCCCN1CCCC(C)C1 (stereo not shown) [Example 70, N-(3-Fluoro-4-{6-methoxy-7-[3-(3-methyl-piperidin-1-yl)-propoxy]-quinolin-4-yloxy}-phenyl)-3-methyl-benzenesulfonamide] | ≥ 4.90 | ≥ 4.90 | ≥ 4.90 | ≥ 4.90 | ≥ 4.90 | ≥ 5.30 | ≥ 5.30 | ≥ 5.30 | ≥ 5.30 | ≥ 5.30 | 21 to 40 | 41 to 60 | 21 to 40 | 21 to 40 | 41 to 60 | 21 to 40 | 0 to 20 | 0 to 20 | 21 to 40 | 21 to 40 | viability at 10 µM [9, 24]: 21 to 40%; viability at 10 µM [9, 25]: 0 to 20%

The next lines start with results.

pIC50 [1] | pIC50 [2] | pIC50 [3] | pIC50 [4] | pIC50 [5] | pIC50 [7, 10] | pIC50 [7, 11] | pIC50 [7, 12] | pIC50 [7, 13] | pIC50 [8] | SMILES | viability at 10 µM [9, 14] [%] | viability at 10 µM [9, 15] [%] | viability at 10 µM [9, 16] [%] | viability at 10 µM [9, 17] [%] | viability at 10 µM [9, 18] [%] | viability at 10 µM [9, 19] [%] | viability at 10 µM [9, 20] [%] | viability at 10 µM [9, 21] [%] | viability at 10 µM [9, 22] [%] | viability at 10 µM [9, 23] [%] | other results
≥ 4.90 | ≥ 4.90 | ≥ 4.90 | ≥ 4.90 | ≥ 4.90 | 4.30 to 5.30 | ≥ 5.30 | ≥ 5.30 | ≥ 5.30 | ≥ 5.30 | COc1cc2c(Oc3ccc(NS(=O)(=O)c4ccc(Cl)s4)cc3F)ccnc2cc1OCCCN1CCCC(C)C1 (stereo not shown) [Example 63, 5-Chloro-thiophene-2-sulfonic acid (3-fluoro-4-{6-methoxy-7-[3-(3-methyl-piperidin-1-yl)-propoxy]-quinolin-4-yloxy}-phenyl)-amide] | 21 to 40 | 0 to 20 | 21 to 40 | 0 to 20 | 41 to 60 | 41 to 60 | 0 to 20 | 0 to 20 | 21 to 40 | 21 to 40 | pIC50 [6]: ≥ 4.90; viability at 10 µM [9, 24]: 0 to 20%; viability at 10 µM [9, 25]: > 60%
≥ 4.90 | ≥ 4.90 | ≥ 4.90 | ≥ 4.90 | ≥ 4.90 | ≥ 5.30 | 4.30 to 5.30 | ≥ 5.30 | 4.30 to 5.30 | ≥ 5.30 | COc1cc2c(Oc3ccc(NS(=O)(=O)c4ccc(C)c(F)c4)cc3F)ccnc2cc1OCCCN1CCCC(C)C1 (stereo not shown) [Example 56, 3-Fluoro-N-(3-fluoro-4-{6-methoxy-7-[3-(3-methyl-piperidin-1-yl)-propoxy]-quinolin-4-yloxy}-phenyl)-4-methyl-benzenesulfonamide] | 21 to 40 | 21 to 40 | 0 to 20 | 0 to 20 | 41 to 60 | 21 to 40 | 0 to 20 | 41 to 60 | > 60 | 21 to 40 | pIC50 [6]: ≥ 4.90; viability at 10 µM [9, 24]: 0 to 20%; viability at 10 µM [9, 25]: 21 to 40%
≥ 4.90 | ≥ 4.90 | ≥ 4.90 | ≥ 4.90 | ≥ 4.90 | ≥ 5.30 | 4.30 to 5.30 | 4.30 to 5.30 | 4.30 to 5.30 | ≥ 5.30 | COc1cc2c(Oc3c(Cl)cc(NS(=O)(=O)c4c(F)cccc4F)cc3Cl)ccnc2cc1OCCCN1CCN(C)CC1 [Example 88, N-(3,5-Dichloro-4-{6-methoxy-7-[3-(4-methyl-piperazin-1-yl)-propoxy]-quinolin-4-yloxy}-phenyl)-2,6-difluoro-benzenesulfonamide] | 0 to 20 | 41 to 60 | 21 to 40 | 0 to 20 | 41 to 60 | 21 to 40 | 0 to 20 | 0 to 20 | 41 to 60 | 0 to 20 | viability at 10 µM [9, 24]: 21 to 40%; viability at 10 µM [9, 25]: 41 to 60%
≥ 4.90 | ≥ 4.90 | ≥ 4.90 | ≥ 4.90 | 4.30 to 4.90 | ≥ 5.30 | ≥ 5.30 | ≥ 5.30 | 4.30 to 5.30 | ≥ 5.30 | COc1cc2c(Oc3ccc(NS(=O)(=O)c4cc(Cl)cc(Cl)c4OC)cc3F)ccnc2cc1OCCCN1CCN(C)CC1 [Example 35, 3,5-Dichloro-N-(3-fluoro-4-{6-methoxy-7-[3-(4-methyl-piperazin-1-yl)-propoxy]-quinolin-4-yloxy}-phenyl)-2-methoxy-benzenesulfonamide] | 21 to 40 | 0 to 20 | 0 to 20 | 0 to 20 | 21 to 40 | 21 to 40 | 0 to 20 | 21 to 40 | > 60 | 41 to 60 | viability at 10 µM [9, 24]: 0 to 20%; viability at 10 µM [9, 25]: 41 to 60%
